{"source": "patent US10596166B2", "about": "“Combination composition comprising huperzine” (priority 2015, dated 2020)", "key": {"[1]": {"system": "nerve/muscle co-culture injured by glutamate", "experiment": "glutamate toxicity on nerve/muscle co-culture (NMJ area, neurite network)", "assay_type": "cell-based, human muscle, rat spinal cord explants", "settings": "glutamate 60 μM, 20 min", "description": "Human muscle (promocell, Batch: 3061107) was prepared according to a previously described method from portions of a biopsy from a healthy subject (Braun et al., (1996) J. Neurol Sci. 136: 17-23). The human muscle cell line was established from dissociated cells (21 000 cells per wells), plated in gelatin-coated 0.1% (Sigma, Batch: 051M0012V) in water on 48 wells plate (greiner, Batch: E13111ME) and grows in a proliferation medium consisting of mix of 62% of MEM medium (PAN, Batch: 2761113) and 25% of M199 medium (PAN, Batch: 6720314) supplemented with glutamine 2 mM (PAN, Batch: 8150713), human insulin 10 μg/ml (PAN, Batch: 1481013), Human recombinant Epidermal growth factor 10 ng/ml (EGF, GIBCO, Batch: 1291552A), human recombinant Fibroblast growth factor basic 2 ng/ml (bFGF, PAN, Batch: H080113), foetal calf serum 10% (FCS, GIBCO, Batch: 41Q7218K) and 2% of Penicillin 10.000 U/ml and Streptomycin 10.000 μg/ml (PS, PAN, Batch: 1451013). The medium was changed every 2 days. Five days after the start of culture, immediately after satellite cell fusion, whole transverse slices of 13-day-old rat Wistar embryos (Janvier, France) spinal cords with 4 dorsal root ganglia (DRG) attached are placed on the muscle monolayer (one explant per well in the central area). DRG are necessary to achieve a good ratio of innervation. Innervated cultures were maintained in a mixed (67%/25%) medium composed of MEM and medium 199, supplemented with 5% FCS, insulin 5 μg/ml, glutamine 2 mM and 2% PS. After 24 h of co-culture, neurites were observed growing out of the spinal cord explants. These neurites made contacts with myotubes and induced the first contractions after ˜8 days. Quickly thereafter, innervated muscle fibres located in the proximity to the spinal cord explants, were virtually continuously contracting. Innervated fibres were morphologically and spatially distinct from the non-innervated ones and could easily be distinguished from them.\nOn day 27, co-cultures were pre-incubated 1 hour before glutamate application with test compounds (different concentrations) tested alone or in a mixture of the 3 compounds.\nOne hour after HA, CA or FA Compounds and mixture (HA/CA/FA) incubation, glutamate was added to a final concentration of 60 μM diluted in control medium still in presence of 3 compounds or mix of compounds for 20 min.\nAfter 20 min injuries, co-cultures were washed and individual test compounds and mixture were added for an additional 48 h.\nAfter 48 h, the cocultures were prepared for end points evaluation (see below).\nAfter 48H of intoxication, cells were incubated with 500 nM α-bungarotoxin coupled with Alexa 488 (Molecular probes, Batch: 1434893) during 15 min in culture innervations medium at 37° C. to detect NMJ. After 2 washing in PBS (Pan Biotech, Batch: 7560414), cells were fixed by a solution of 4% of paraformaldehyde (Sigma Aldrich, Batch: SLBF7274V) in PBS, pH=7.3 for 20 min at room temperature.\nThe cells were washed 2 times in PBS and then permeabilized and non-specific sites were blocked with a solution of PBS containing 0.1% of saponin (Sigma-Aldrich, Batch: BCBJ8417V) and 1%0 FCS (Gibco, Batch: 41F0423K) for 15 min at room temperature, co-cultures were incubated with a mouse monoclonal anti-neurofilament 200 KD antibody (NF, Sigma Aldrich, Batch: 053M4756) at the dilution of 1/400 in PBS containing 1% FCS, 0.1% saponin, for 2 h at room temperature. Antibody against NF stained the axon of motor neuron. […] Nuclei of neurons were labeled by Hoechst solution, a nuclear fluorescent marker at […] in the same solution (Hoechst solution, SIGMA, batch: 011M4004V).\nThe NMJ mean size (area) of NMJs and the total length of neurite were assessed under the experimental conditions described above (see Combes et al., 2015). For each condition, 20 pictures per well were taken in the center area using ImageXpress (Molecular device) with 10× magnification. All images were taken under the same conditions. […]"}, "[2]": {"system": "Acetylcholinesterase (AChE)", "description": "Test compounds alone or in association in mixture were solved at different concentrations in medium and then pre-incubated with kit of measure AchE (Promega, France).\nTest compounds alone or in association in the NSP01-001-E001 prepared according to example 4 were solved at different concentrations in medium and then pre-incubated with kit of measure AchE (Promega, France).\nKit achetylcholinesterase (Abcam ref ab138871) was used. […] A 10-minutes incubation time was applied. The absorbance was assessed at 410 nm.\nThe activity of the AchE was evaluated versus an AchE activity standard curve.\nData were expressed in percentage of control conditions (no compound=100%). All values were expressed as mean+/−SEM (s.e.mean) (n=6 wells per condition per culture). Graphs and statistical analyses on the different conditions (ANOVA followed by PLSD Fisher's test when allowed, were performed using GraphPad Prism software version 5.0)."}, "[3]": {"system": "primary cortical neurons injured by Aβ", "experiment": "Aβ-peptide toxicity on primary cortical neurons (neuron survival, neurite network)", "assay_type": "cell-based, rat", "settings": "Aβ 20 μM, 24 h", "description": "The present study used an in vitro model of Alzheimer's disease established by Callizot et al. [2013, already cited], using Aβ-peptide solution containing Aβ-oligomers and permitting to reproduce essential neuropathological features of Alzheimer's disease.\nThe Aβ1-42-preparation was obtained following the procedure described by Callizot et al. [2013, already cited]. Briefly, Aβ1-42 peptide was dissolved in the defined culture medium mentioned above, devoid of serum, at an initial concentration of 40 μmol/liter. This solution was gently agitated for 3 days at 37° C. in the dark and immediately used after being diluted in culture medium to the concentrations used.\nOn day 11 of culture, HA, CA, FA and mixtures thereof were solved and diluted in culture medium and then pre-incubated with cortical neurons 1 hour before the Aβ1-42-peptide application. Aβ1-42-preparation was then added to a final concentration of 20 μM diluted in control medium.\nAfter 24 hours of Aβ-intoxication, the cultures were fixed and immunolabeled and the neuron survival and the neurite network length were assessed as described in the above example."}, "[4]": {"system": "Alzheimer's disease patients", "settings": "particularly at a daily dose of 300-500 μg; cited from earlier work"}}, "note": "Where two headings read alike, the source gives them in different places.", "data": [{"compound": "O=C(O)/C=C/c1ccc(O)c(O)c1", "note": "[CA, caffeic acid]", "values": [{"measurement": "neurite network (area of innervation)", "setting": "[1]; CA added 1 h before glutamate", "value": "slight protection"}, {"measurement": "neurite network (area of innervation)", "setting": "[1]; CA highest dose (5 nM)", "value": "significance was observed"}, {"measurement": "NMJ area (mean size)", "setting": "[1]; CA low concentrations", "value": "unable to protect"}, {"measurement": "NMJ area (mean size)", "setting": "[1]; only at the highest dose (5 nM)", "value": "able to protect"}, {"measurement": "inhibition of AChE", "setting": "[2]; 50 pM", "value": "~8", "unit": "%"}, {"measurement": "neuron survival", "setting": "[3]; 500 pM and below", "value": "no effect"}, {"measurement": "neurite network", "setting": "[3]; even at lower concentrations", "value": "Protective effect"}, {"measurement": "neuron survival", "setting": "[3]; from 5 nM up to 5 μM", "value": "significantly protect"}]}, {"compound": "COc1cc(/C=C/C(=O)O)ccc1O", "note": "[FA, ferulic acid]", "values": [{"measurement": "NMJ area (mean size)", "setting": "[1]; FA lowest and highest concentrations", "value": "inactive"}, {"measurement": "NMJ area (mean size)", "setting": "[1]; FA only at 100 nM", "value": "able to protect"}, {"measurement": "neurite network (area of innervation)", "setting": "[1]; highest dose tested (10 μM)", "value": "moderate effect"}, {"measurement": "inhibition of AChE", "setting": "[2]; 100 pM", "value": "~8", "unit": "%"}, {"measurement": "neurite network", "setting": "[3]; 10 and 100 μM", "value": "significant effect"}, {"measurement": "neuron survival", "setting": "[3]; whatever the concentration tested", "value": "not able to protect"}]}, {"compound": "C/C=C1\\[C@H]2C=C(C)C[C@]1(N)c1ccc(=O)[nH]c1C2", "note": "[HA, huperzine A, reference compound]", "values": [{"measurement": "NMJ area (mean size)", "setting": "[1]; HA 100 nM", "value": "significance was observed"}, {"measurement": "neurite network (area of innervation)", "setting": "[1]; HA 100 nM, without reaching the significance", "value": "slight neuroprotection"}, {"measurement": "NMJ area (mean size)", "setting": "[1]; HA, all concentrations tested", "value": "slight protective effect"}, {"measurement": "neurite network (area of innervation)", "setting": "[1]; HA, all concentrations tested", "value": "no neuronal protective effect"}, {"measurement": "neuron survival", "setting": "[3]; HA, all concentrations", "value": "not able to significantly protect"}, {"measurement": "tolerability and benefit", "setting": "[4]", "value": "well-tolerated and beneficial"}]}]}
